According to the Kinase Knowledgebase extract (Sharma et al. 2016):

These molecules were tested against EGFR (UniProt P00533).
Chain of EGFR (P00533 whole entry, looked up): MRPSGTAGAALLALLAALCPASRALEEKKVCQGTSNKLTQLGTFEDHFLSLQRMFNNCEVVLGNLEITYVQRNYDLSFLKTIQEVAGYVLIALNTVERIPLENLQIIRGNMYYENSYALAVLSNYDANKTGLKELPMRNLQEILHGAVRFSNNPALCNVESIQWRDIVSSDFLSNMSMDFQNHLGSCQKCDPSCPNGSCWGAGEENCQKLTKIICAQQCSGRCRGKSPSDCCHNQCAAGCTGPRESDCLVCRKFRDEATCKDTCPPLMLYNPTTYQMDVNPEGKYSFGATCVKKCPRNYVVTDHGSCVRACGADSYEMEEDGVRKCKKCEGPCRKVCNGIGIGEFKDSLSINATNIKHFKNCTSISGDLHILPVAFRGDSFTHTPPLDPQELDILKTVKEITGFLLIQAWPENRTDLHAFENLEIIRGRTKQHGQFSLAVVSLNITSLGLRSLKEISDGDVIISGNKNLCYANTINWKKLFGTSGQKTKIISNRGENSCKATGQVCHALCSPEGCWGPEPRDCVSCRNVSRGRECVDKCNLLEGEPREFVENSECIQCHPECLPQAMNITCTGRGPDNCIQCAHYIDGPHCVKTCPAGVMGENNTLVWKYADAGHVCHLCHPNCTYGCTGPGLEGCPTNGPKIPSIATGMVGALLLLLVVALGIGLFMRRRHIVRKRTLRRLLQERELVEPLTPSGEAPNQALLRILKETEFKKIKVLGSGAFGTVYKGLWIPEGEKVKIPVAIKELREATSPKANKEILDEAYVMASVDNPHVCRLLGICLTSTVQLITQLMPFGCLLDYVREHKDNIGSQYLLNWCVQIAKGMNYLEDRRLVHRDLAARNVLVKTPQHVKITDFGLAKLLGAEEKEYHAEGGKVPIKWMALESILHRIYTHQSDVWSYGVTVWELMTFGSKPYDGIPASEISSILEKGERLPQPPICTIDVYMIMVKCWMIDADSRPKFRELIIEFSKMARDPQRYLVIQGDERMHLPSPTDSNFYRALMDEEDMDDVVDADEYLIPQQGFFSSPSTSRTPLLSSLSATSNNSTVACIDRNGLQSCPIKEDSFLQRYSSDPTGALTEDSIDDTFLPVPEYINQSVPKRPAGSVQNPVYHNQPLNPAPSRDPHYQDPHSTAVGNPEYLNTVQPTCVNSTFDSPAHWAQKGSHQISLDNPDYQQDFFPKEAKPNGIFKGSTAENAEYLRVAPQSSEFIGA

Going from `Brc1cccc(Nc2nccc3ccccc23)c1` to `Brc1cccc(Nc2ccnc3ccccc23)c1`, the IC50 falls from over 100000 nM to 5500 nM. The second is the more potent here.

First: Cc1[nH]c2ncnc(Nc3cccc(Br)c3)c2c1C
Second: Cc1[nH]c2ncnc(Nc3cccc(O)c3)c2c1C
The IC50 of the first is 46-fold lower: 27 nM for the first, 1250 nM for the second. The first is the more potent here.

`Oc1ccc(-c2cc3c(Nc4cccc(Cl)c4)ncnc3[nH]2)cc1` and `Nc1ccc(-c2cc3c(Nc4cccc(Cl)c4)ncnc3[nH]2)cc1` cannot be ordered by IC50: under 5 nM for the first, under 5 nM for the second.

`Nc1cccc(-c2cc3c(Nc4cccc(Cl)c4)ncnc3[nH]2)c1` and `Oc1cccc(-c2cc3c(Nc4cccc(Cl)c4)ncnc3[nH]2)c1` cannot be ordered by IC50: under 5 nM for the first, under 5 nM for the second.

Going from `CCN(CC)CCOc1ccc(Nc2ncc3cc(-c4c(Cl)cccc4Cl)c(NC(=O)NC(C)(C)C)nc3n2)cc1` to `CN(C)c1ncc2cc(-c3c(Cl)cccc3Cl)c(=O)n(C)c2n1`, the IC50 rises from 24 nM to 50000 nM (2100-fold).

Going from `Clc1cccc(Nc2ncnc3[nH]nc(Nc4cccc(Cl)c4)c23)c1` to `Cc1c(-c2ccccc2)[nH]c2ncnc(Nc3cccc(Cl)c3)c12`, the IC50 falls from 84 nM to 10 nM (8.4-fold). The second is the more potent here.

Going from `COc1cc2nc(C)nc(Nc3cccc(Br)c3)c2cc1OC` to `COc1cc2nc(N)nc(Nc3cccc(Br)c3)c2cc1OC`, the IC50 falls from over 10000 nM to 463 nM. The second is the more potent here.

First: Cc1[nH]c2ncnc(Nc3cccc(C(=O)O)c3)c2c1C
Second: O=C(O)c1ccc(-c2cc3c(Nc4cccc(Cl)c4)ncnc3[nH]2)cc1
The IC50 of the first is higher: 16300 nM for the first, under 5 nM for the second.

Going from `CCOC(=O)c1ccc(-c2cc3c(Nc4cccc(Cl)c4)ncnc3[nH]2)cc1` to `Brc1cccc(Nc2ncnc3ccccc23)c1`, the IC50 rises from under 5 nM to 27 nM.

With `Cn1c(=O)c(-c2c(Cl)cccc2Cl)cc2cnc(N)nc21` the IC50 was 5600 nM.
